The values below come from patent publication US8686184B2, “Neprilysin inhibitors” (Theravance, Inc., priority 2011, dated 2014).

The experiment has as its target T1, human neprilysin (EC 3.4.24.11; NEP) (Homo sapiens, UniProt P08473).
T1 construct: purchased R&D Systems, Minneapolis, Minn; 1182-ZN
The experiment in a line: In vitro enzyme inhibition assay at human NEP (fluorogenic peptide substrate). The settings on record: recombinant human NEP; 37° C.; substrate Mca-D-Arg-Arg-Leu-Dap-(Dnp)-OH 10 μM; values given as ranges; read-out: pKi values at human NEP (converted). The format is biochemical. In outline: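 Recombinant human NEP pre-incubated 30 min at 37 °C with compound (10 μM to 20 pM), then cleaved 20 min at 37 °C with 10 μM Mca-D-Arg-Arg-Leu-Dap-(Dnp)-OH in HEPES pH 7.5, NaCl, Tween-20, 10 μM ZnSO4. Stopped with acetic acid; fluorescence Ex 320/Em 405 nm; apparent Ki from v=v0/[1+(I/K′)] fit, reported as pKi.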

T1 sequence (P08473 52-750 limits assumed): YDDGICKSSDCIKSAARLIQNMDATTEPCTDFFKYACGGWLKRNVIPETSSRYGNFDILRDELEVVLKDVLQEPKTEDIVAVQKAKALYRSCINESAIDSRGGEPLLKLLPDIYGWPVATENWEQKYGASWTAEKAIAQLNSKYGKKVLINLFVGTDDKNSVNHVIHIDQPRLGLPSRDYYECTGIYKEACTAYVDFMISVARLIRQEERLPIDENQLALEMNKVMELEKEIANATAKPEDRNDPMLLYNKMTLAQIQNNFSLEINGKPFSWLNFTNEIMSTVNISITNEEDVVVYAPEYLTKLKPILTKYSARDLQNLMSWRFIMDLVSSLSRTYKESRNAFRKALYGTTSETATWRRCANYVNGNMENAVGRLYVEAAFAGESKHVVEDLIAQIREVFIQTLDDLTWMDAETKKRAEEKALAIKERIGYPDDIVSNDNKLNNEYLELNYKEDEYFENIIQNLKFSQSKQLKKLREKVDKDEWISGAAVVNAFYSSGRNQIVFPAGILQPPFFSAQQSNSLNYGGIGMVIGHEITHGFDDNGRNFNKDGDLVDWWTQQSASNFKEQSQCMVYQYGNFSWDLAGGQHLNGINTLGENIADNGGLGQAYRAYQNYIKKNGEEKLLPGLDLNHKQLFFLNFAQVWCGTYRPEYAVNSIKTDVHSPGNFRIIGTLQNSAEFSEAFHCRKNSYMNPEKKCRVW

On to `CCc1ccc(C(=O)N[C@H](Cc2ccccc2)[C@@H](O)C(=O)O)cc1NC(=O)NC(CC(C)C)C(=O)O` (stereo partly drawn) [Example 10-74, 2-{3-[5-((1R,2R)-1-Benzyl-2-carboxy-2-hydroxy-ethylcarbamoyl)-2-ethyl-phenyl]-ureido}-4-methyl-pentanoic acid], for which the Ki is 0.0126 to 0.1 µM. In the case of `CCc1ccc(C(=O)N[C@H](Cc2ccccc2)[C@@H](O)C(=O)O)cc1NC(=O)Nc1ccccc1` [Example 10-75, (2R,3R)-3-[4-Ethyl-3-(3-phenyl-ureido)-benzoylamino]-2-hydroxy-4-phenyl-butyric acid] it was 0.0126 to 0.1 µM; in that of `CCc1ccc(C(=O)N[C@H](Cc2ccccc2)[C@@H](O)C(=O)O)cc1NC(=O)Nc1sccc1C(=O)O` [Example 10-76, 2-{3-[5-((1R,2R)-1-Benzyl-2-carboxy-2-hydroxy-ethylcarbamoyl)-2-ethyl-phenyl]-ureido}-thiophene-3-carb oxylic acid], 0.0126 to 0.1 µM; in that of `CCc1ccc(C(=O)N[C@H](Cc2ccccc2)[C@@H](O)C(=O)O)cc1NC(=O)Nc1sc(C)cc1C(=O)O` [Example 10-77, 2-{3-[5-((1R,2R)-1-Benzyl-2-carboxy-2-hydroxy-ethylcarbamoyl)-2-ethyl-phenyl]-ureido}-5-methyl-thiophene-3-carboxylic acid], no more than 0.001 µM. Consider `CCc1ccc(C(=O)N[C@H](Cc2ccccc2)[C@@H](O)C(=O)O)cc1NC(=O)Nc1ccsc1C(=O)O` [Example 10-78, 3-{3-[5-((1R,2R)-1-Benzyl-2-carboxy-2-hydroxy-ethylcarbamoyl)-2-ethyl-phenyl]-ureido}-thiophene-2-carboxylic acid], for which the Ki was 0.0126 to 0.1 µM.

Consider `CCCCOC(=O)Nc1cc(C(=O)N[C@H](Cc2ccccc2)[C@@H](O)C(=O)O)ccc1CC` [Example 10-79, (2R,3R)-3-(3-Butoxycarbonylamino-4-ethyl-benzoylamino)-2-hydroxy-4-phenyl-butyric acid], for which the Ki is 0.0126 to 0.1 µM. The same measure for `CC(C)c1ccc(C(=O)N[C@H](Cc2ccccc2)[C@@H](O)C(=O)O)cc1-c1ccncc1` [Example 10-80, (2R,3R)-2-Hydroxy-3-(4-isopropyl-3-pyridin-4-yl-benzoylamino)-4-phenyl-butyric acid]: 0.0126 to 0.1 µM; for `CC(C)c1ccc(C(=O)N[C@H](Cc2ccccc2)[C@@H](O)C(=O)O)cc1-c1cccc(C(=O)N(C)C)c1` [Example 10-81, (2R,3R)-3-[(3′-Dimethylcarbamoyl-6-isopropyl-biphenyl-3-carbonyl)-amino]-2-hydroxy-4-phenyl-butyric acid]: 0.0126 to 0.1 µM. In the case of `Cc1cc(C(=O)N[C@H](Cc2ccccc2)[C@@H](O)C(=O)O)cc(C)c1F` [Example 10-82, (2R,3R)-3-(4-Fluoro-3,5-dimethyl-benzoylamino)-2-hydroxy-4-phenyl-butyric acid] it was 0.0126 to 0.1 µM. The same measure for `O=C(O)C[C@@H](Cc1ccccc1Cl)NC(=O)CCCc1ccccc1C(=O)O` [Example 11, 2-{3-[(R)-1-Carboxymethyl-2-(2-chlorophenyl)-ethylcarbamoyl]-propyl}-benzoic Acid]: 0.00126 to 0.01 µM.

For `Cc1ccc(C(=O)N[C@@H](CC(=O)O)Cc2ccccc2Cl)cc1-c1ccccc1C(=O)O` [Example 12, 5′-[(R)-2-Carboxy-1-(2-chloro-benzyl)-ethylcarbamoyl]-2′-methyl-biphenyl-2-carboxylic Acid], the Ki was 0.00126 to 0.01 µM. In the case of `O=C(O)Cc1ccccc1-c1cccc(C(=O)N[C@@H](CC(=O)O)Cc2ccccc2Cl)c1` [Example 13-1, (R)-3-[(2′-Carboxymethyl-biphenyl-3-carbonyl)-amino]-4-(2-chloro-phenyl)-butyric acid] it was 0.0126 to 0.1 µM. For the compound `O=C(O)C[C@@H](Cc1ccccc1Cl)NC(=O)c1cccc(-c2ccccc2C(=O)O)c1` [Example 13-2, 3′-[(R)-2-Carboxy-1-(2-chloro-benzyl)-ethylcarbamoyl]-biphenyl-2-carboxylic acid], the Ki was 0.00126 to 0.01 µM.

For `Cc1ccc(C(=O)N[C@@H](CC(=O)O)Cc2ccccc2Cl)cc1-c1ccccc1CC(=O)O` [Example 13-3, (R)-3-[(2′-Carboxymethyl-6-methyl-biphenyl-3-carbonyl)-amino]-4-(2-chloro-phenyl)-butyric acid], the Ki is 0.00126 to 0.01 µM. As to `O=C(O)Cc1ccccc1-c1ccc(C(=O)N[C@@H](CC(=O)O)Cc2ccccc2Cl)cc1` [Example 13-4, (R)-3-[(2′-Carboxymethyl-biphenyl-4-carbonyl)-amino]-4-(2-chloro-phenyl)-butyric acid], the Ki is 0.0126 to 0.1 µM.

For the compound `CC1=NN(c2ccc(C(=O)N[C@@H](CC(=O)O)Cc3ccccc3Cl)cc2Cl)C(=O)C1` [Example 13-5, (R)-3-[3-Chloro-4-(3-methyl-5-oxo-4,5-dihydro-pyrazol-1-yl)-benzoylamino]-4-(2-chloro-phenyl)-butyric acid], the Ki is 0.0126 to 0.1 µM.

As for `CC1=NN(c2ccc(C(=O)N[C@@H](CC(=O)O)Cc3ccccc3Cl)cc2)C(=O)C1` [Example 13-6, (R)-4-(2-Chlorophenyl)-3-[4-(3-methyl-5-oxo-4,5-dihydro-pyrazol-1-yl)-benzoylamino]-butyric acid], the Ki is 0.0126 to 0.1 µM. In the case of `CC1=NN(c2cccc(C(=O)N[C@@H](CC(=O)O)Cc3ccccc3Cl)c2)C(=O)C1` [Example 13-8, (R)-4-(2-Chlorophenyl)-3-[3-(3-methyl-5-oxo-4,5-dihydro-pyrazol-1-yl)-benzoylamino]-butyric acid] it was 0.0126 to 0.1 µM; in that of `CCCC1=NN(c2cccc(C(=O)N[C@@H](CC(=O)O)Cc3ccccc3Cl)c2)C(=O)C1` [Example 13-9, (R)-4-(2-Chlorophenyl)-3-[3-(5-oxo-3-propyl-4,5-dihydro-pyrazol-1-yl)-benzoylamino]-butyric acid], 0.0126 to 0.1 µM; in that of `CCc1ccc(C(=O)N[C@@H](CC(=O)O)Cc2ccccc2Cl)cc1-n1c(=O)[nH]c2sc(C)cc2c1=O` [Example 13-10, (R)-4-(2-Chlorophenyl)-3-[4-ethyl-3-(6-methyl-2,4-dioxo-1,4-dihydro-2H-thieno[2,3-d]pyrimidin-3-yl)-benzoylamino]-butyric acid], 0.0126 to 0.1 µM. In the case of `Cc1ccc(C(=O)N[C@@H](CC(=O)O)Cc2ccccc2C(F)(F)F)cc1-c1ccccc1C(=O)O` [Example 14, 5′-[(R)-2-Carboxy-1-(2-trifluoromethyl-benzyl)-ethylcarbamoyl]-2′-methyl-biphenyl-2-carboxylic Acid] it was 0.00126 to 0.01 µM.
